# Source: patent publication US8344010B2, “Fused imidazole derivatives as TRPV3 antagonist” (Glenmark Pharmaceuticals S.A., priority 2008, dated 2013)
# Molecular target: T1, Human TRPV3 (Homo sapiens, UniProt Q8NET8)
# T1 construct: expressed in transfected cells; host or cells: CHO cells (selected with G-418)
# T1 sequence (Q8NET8 1-790): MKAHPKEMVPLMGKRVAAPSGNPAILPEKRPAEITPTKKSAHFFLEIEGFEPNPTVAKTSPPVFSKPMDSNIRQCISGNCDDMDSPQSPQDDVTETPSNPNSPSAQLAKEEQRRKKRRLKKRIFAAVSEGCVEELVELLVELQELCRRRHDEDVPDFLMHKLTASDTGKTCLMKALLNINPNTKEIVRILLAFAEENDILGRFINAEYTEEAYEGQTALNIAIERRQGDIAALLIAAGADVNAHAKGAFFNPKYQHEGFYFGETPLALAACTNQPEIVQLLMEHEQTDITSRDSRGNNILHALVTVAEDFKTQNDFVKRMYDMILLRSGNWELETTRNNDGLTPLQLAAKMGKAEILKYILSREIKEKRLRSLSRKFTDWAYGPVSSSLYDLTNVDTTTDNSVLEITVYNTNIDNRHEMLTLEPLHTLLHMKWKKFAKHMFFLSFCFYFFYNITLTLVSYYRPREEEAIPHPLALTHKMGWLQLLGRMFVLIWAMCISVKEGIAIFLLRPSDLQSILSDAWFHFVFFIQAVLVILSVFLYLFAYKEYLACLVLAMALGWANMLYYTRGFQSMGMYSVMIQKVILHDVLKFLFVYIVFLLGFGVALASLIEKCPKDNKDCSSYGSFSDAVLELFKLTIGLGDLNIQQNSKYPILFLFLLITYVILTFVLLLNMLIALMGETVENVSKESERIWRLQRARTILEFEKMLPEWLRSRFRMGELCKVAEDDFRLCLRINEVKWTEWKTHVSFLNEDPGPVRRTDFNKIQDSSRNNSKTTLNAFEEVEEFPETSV
# Assay: 45Calcium uptake assay: inhibition of 2-APB induced cellular uptake of radioactive calcium
# Type: cell-based
# Conditions: human TRPV3 expressing CHO cells, 2-APB 500 μM; for inhibition at 1 µM: 1 μM test compound, read-out: Percentage Inhibition (1 μM); for inhibition at 10 µM: 10 μM test compound, read-out: Percentage Inhibition (10 μM); for IC50: class symbol
# Procedure, shortened: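 CHO cells expressing human TRPV3 were preincubated with compound for 10 min (0.5% DMSO final), then given 500 μM 2-APB plus 5 μCi/ml 45Ca2+ for 4 min. Lysate radioactivity was counted by scintillation; responses as % of maximal without antagonist, with IC50 by nonlinear regression.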
inhibition at 1 µM,inhibition at 10 µM,IC50,SMILES
95.7%,99.1%,100 to 500 nM,"CCCCCOc1c(/C=C/c2nc3cccnc3n2-c2ccc(C#N)cn2)cccc1OC [Example 87, 6-{2-[(E)-2-(2-Pentyloxy-3-methoxyphenyl)vinyl]-3H-imidazo[4,5-b]pyridin-3-yl}nicotinonitrile]"
25.1%,71.1%,–,"CCCCCOc1c(/C=C/c2nc3ccc[n+]([O-])c3n2-c2ccc(C#N)cn2)cccc1OC [Example 88, 6(2-{(E)-2-[3-methoxy-2-(pentyloxy)phenyl]ethenyl}-4-oxido-3H-imidazo[4,5-b]pyridin-3-yl)pyridine-3-carbonitrile]"
74.2%,96.6%,100 to 500 nM,"COc1cccc(/C=C/c2nc3cccnc3n2-c2ccc(C#N)cn2)c1OCC1CC1 [Example 89, 6-{2-[(E)-2-(2-[Cyclopropylmethoxy]-3-methoxyphenyl)vinyl]-3H-imidazo[4,5-b]pyridin-3-yl}nicotinonitrile]"
93.3%,98.2%,50 to 100 nM,"COc1cccc(/C=C/c2nc3cccnc3n2-c2ccc(C#N)cn2)c1OCC1CCC1 [Example 90, 6-[2-{(E)-2-[2-(Cyclobutylmethoxy)-3-methoxyphenyl]vinyl}-3H-imidazo[4,5-b]pyridine-3-yl]nicotinonitrile]"
95.3%,99.7%,100 to 500 nM,"COc1cccc(/C=C/c2nc3cccnc3n2-c2ccc(C#N)cn2)c1OC1CCCC1 [Example 91, 6-{2-[(E)-2-(2-[Cyclopentyloxy]-3-methoxyphenyl)vinyl]-3H-imidazo[4,5-b]pyridin-3-yl}nicotinonitrile]"
3.02%,24.5%,–,"COc1cccc(/C=C/c2nc3ccc[n+]([O-])c3n2-c2ccc(C#N)cn2)c1OC1CCCC1 [Example 92, 6 (2-{(E)-2-[2-(cyclopentyloxy)-3-methoxyphenyl]ethenyl}-4-oxido-3H-imidazo[4,5-b]pyridin-3-yl)pyridine-3-carbonitrile]"
95.2%,97.6%,50 to 100 nM,"CCCCCOc1c(/C=C/c2nc3cc(Cl)cnc3n2-c2ccc(C#N)cn2)cccc1OC [Example 93, 6-{6-Chloro-2-[(E)-2-(2-pentyloxy-3-methoxyphenyl)vinyl]-3H-imidazo[4,5-b]pyridin-3-yl}nicotinonitrile]"
94.5%,98%,50 to 100 nM,"COc1cccc(/C=C/c2nc3cc(Cl)cnc3n2-c2ccc(C#N)cn2)c1OCC1CCC1 [Example 94, 6-(6-Chloro-2-{(E)-2-[2-(cyclobutylmethoxy)-3-methoxyphenyl]vinyl}-3H-imidazo[4,5-b]pyridin-3-yl)nicotinonitrile]"
93.7%,97.8%,50 to 100 nM,"COc1cccc(/C=C/c2nc3cc(Cl)cnc3n2-c2ccc(C#N)cn2)c1OC1CCCC1 [Example 95, 6-{6-Chloro-2-[(E)-2-(2-(cyclopentyloxy)-3-methoxyphenyl)vinyl]-3H-imidazo[4,5-b]pyridin-3-yl}nicotinonitrile]"
97.1%,98.1%,50 to 100 nM,"CCCCCOc1c(/C=C/c2nc3cccnc3n2-c2ccc(C#N)cn2)cccc1OC(F)F [Example 96, 6-(2-{(E)-2-[3-(Difluoromethoxy)-2-pentyloxyphenyl]vinyl}-3H-imidazo[4,5-b]pyridin-3-yl)nicotinonitrile]"
96%,99.2%,50 to 100 nM,"N#Cc1ccc(-n2c(/C=C/c3cccc(OC(F)F)c3OCC3CCC3)nc3cccnc32)nc1 [Example 97, 6-(2-{(E)-2-[2-(Cyclobutylmethoxy)-3-difluoromethoxyphenyl]vinyl}-3H-imidazo[4,5-b]pyridin-3-yl)nicotinonitrile]"
95.9%,100%,100 to 500 nM,"N#Cc1ccc(-n2c(/C=C/c3cccc(OC(F)F)c3OC3CCCC3)nc3cccnc32)nc1 [Example 98, 6-(2-{(E)-2-[2-(Cyclopentyloxy)-3-difluoromethoxyphenyl]vinyl}-3H-imidazo[4,5-b]pyridin-3-yl)nicotinonitrile]"
89.5%,95.8%,> 500 nM,"FC(F)Oc1cccc(/C=C/c2nc3cccnc3n2-c2ccc(C(F)(F)F)cc2)c1OCC1CCC1 [Example 99, 2-[(E)-2-(2-Cyclobutylmethoxy-3-difluoromethoxyphenyl)vinyl]-3-[4-(trifluoromethyl)phenyl]-3H-imidazo[4,5-b]pyridine]"
66.3%,94.9%,–,"FC(F)Oc1cccc(/C=C/c2nc3cccnc3n2-c2ccc(OC(F)(F)F)cc2)c1OCC1CCC1 [Example 100, 2-{(E)-2-[2-Cylobutylmethoxy-3-(difluoromethoxy)phenyl]vinyl}-3-[4-(trifluoromethoxy)phenyl]-3H-imidazo[4,5-b]pyridine]"
30.3%,85.2%,–,"CCCCCOc1c(/C=C/c2nc3cc(Cl)cnc3n2-c2ccc(C#N)cn2)cccc1OC(F)F [Example 101, 6-(6-Chloro-2-{(E)-2-[3-(difluoromethoxy)-2-pentyloxyphenyl]vinyl}-3H-imidazo[4,5-b]pyridin-3-yl)nicotinonitrile]"
95.1%,98.1%,50 to 100 nM,"N#Cc1ccc(-n2c(/C=C/c3cccc(OC(F)F)c3OCC3CCC3)nc3cc(Cl)cnc32)nc1 [Example 102, 6-(6-Chloro-2-{(E)-2-[2-(cyclobutylmethoxy)-3-difluoromethoxyphenyl]vinyl}-3H-imidazo[4,5-b]pyridin-3-yl)nicotinonitrile]"
98.3%,97.8%,50 to 100 nM,"N#Cc1ccc(-n2c(/C=C/c3cccc(OC(F)F)c3OC3CCCC3)nc3cc(Cl)cnc32)nc1 [Example 103, 6-(6-Chloro-2-{(E)-2-[2-(cyclopentyloxy)-3-difluoromethoxyphenyl]vinyl}-3H-imidazo[4,5-b]pyridin-3-yl)nicotinonitrile]"
48.7%,98.3%,–,"COc1cccc(/C=C/c2nc3cnccc3n2-c2ccc(C#N)cn2)c1OC1CCCC1 [Example 104, 6-{2-[(E)-2-(2-[Cyclopentyloxy]-3-methoxyphenyl)vinyl]-1H-imidazo[4,5-c]pyridin-1-yl}nicotinonitrile]"

SMILES,inhibition at 1 µM,inhibition at 10 µM,IC50
"CCCCOc1c(/C=C/c2nc3cccnc3n2-c2ccc(C#N)cn2)cccc1OC [Example 86, 6-{2-[(E)-2-(2-Butoxy-3-methoxyphenyl)vinyl]-3H-imidazo[4,5-b]pyridin-3-yl}nicotinonitrile]",92.6%,95.2%,100 to 500 nM
